Source: PubChem BioAssay (NCI)
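Briefly, cells in 96-well plates were exposed to five compound concentrations for 48 h, and endpoints were estimated by linear interpolation. GI50 = concentration required for 50% inhibition of growth. TGI denotes the concentration required for complete inhibition of growth.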 *1 amine or outer side, *2 acyl side, *3 side chain or, on linkers, in order; H or OH if unused. Where a SMILES comes first, the peptide text is derived from it. [ ]: non-standard residue; d: D form. X33 = C=CCC(O[*:1])C(=O)[*:2]; NMeV = CN[CH](C(=O)O)C(C)C; NMeA = CN[CH](C)C(=O)O; βAla = NCCC(=O)O

Key:
Test in all cases: NCI tumour cell line growth inhibition, 48 h
[1] = tested on: MOLT-4 leukemia
[2] = tested on: SNB-78 CNS
[3] = tested on: M19-MEL melanoma
[4] = tested on: XF 498 CNS
[5] = tested on: SN12K1 renal
[6] = tested on: HOP-18 NSCLC
[7] = tested on: P388 leukemia
[8] = tested on: SNB-19 CNS
[9] = tested on: DLD-1 colon
[10] = tested on: KM20L2 colon
[11] = tested on: P388/ADR leukemia
[12] = tested on: DMS 114 small cell lung
[13] = tested on: DMS 273 small cell lung
[14] = tested on: T-47D breast
[15] = tested on: 786-0 renal
[16] = tested on: MDA-MB-231 breast
[17] = tested on: LXFL 529 NSCLC

Row | Compound | TGI [1] [µM] | TGI [2] [µM] | TGI [8] [µM] | TGI [10] [µM] | TGI [12] [µM] | TGI [13] [µM] | TGI [14] [µM] | TGI [15] [µM] | TGI [16] [µM] | other results
1 | O=C(NN1C(=O)CSC1c1ccc(C(F)(F)F)cc1)c1ccncc1 (stereo not given) | > 100 | > 31.6 | > 100 | > 100 | > 100 | > 100 |  |  |  | TGI [3]: > 100 µM; TGI [4]: > 100 µM; TGI [5]: > 100 µM; TGI [6]: > 100 µM; TGI [7]: > 100 µM; TGI [9]: > 100 µM; TGI [11]: > 100 µM
2 | C/C(=N\NC(=S)Nc1ccc(C)cc1)c1nc2ncccc2[nH]1 | 17.6 |  | > 100 |  |  |  | 18 | 18.7 | > 100 | 
3 | COc1ccc(-c2c3c(nc4nc(SC)nc(SC)c24)CCCC3)cc1OC | > 100 |  | > 100 |  |  |  | > 100 |  | > 100 | 
4 | Nc1nc(N)c2[nH]cnc2n1 (tested in a mixture with another compound) | > 100 |  | > 100 |  |  |  | 40 | > 100 | > 100 | 
5 | NC(=S)N/N=C1\c2ccccc2CCC1CCC1(O)CCc2ccccc2C1=O (stereo not given) | 88.2 |  | > 100 |  |  |  | 28.9 |  | > 100 | 
6 | CCc1nnc(-c2nsc3ccccc23)s1 | > 100 | > 100 | > 100 | > 100 | > 100 | > 100 |  |  |  | TGI [6]: > 100 µM; TGI [17]: > 100 µM
7 | COc1cc2c(cc1OC)C(C)N(C)c1c-2c(OC(C)=O)cc2cc(OC)c(OC)cc12 (stereo not given) | > 100 |  | > 100 |  |  |  | 24.1 | 62 | 27.9 | 
8 | O=S(=O)(O)c1ccc2c(N=Nc3ccc(F)cc3)c(O)c(S(=O)(=O)O)cc2c1 | > 100 |  | > 100 |  |  |  | > 100 | > 100 | > 100 | 
9 | C=CCC1OC(=O)CCNC(=O)C(C)N(C)C(=O)C(C(C)C)N(C)C(=O)C(C(C)CC)NC(=O)C2CCCN2C1=O (stereo not given) (cyclo([X33]PI[NMeV][NMeA][βAla]); configuration not given here) | > 100 |  | > 100 |  |  |  | > 100 | > 100 | 62.9 | 
10 | C[C@]12CCc3sc(Nc4ccc(O)cc4)nc3C1=CC[C@@H]1[C@@H]2CC[C@]2(C)C(=O)CC[C@@H]12 | > 100 |  | > 100 |  |  |  | 5.03 |  |  | GI50 [1]: 2.38 µM; GI50 [14]: 1.95 µM; GI50 [8]: 10.9 µM
11 | O=C(O)CC1(CC(=O)O)Nc2ccccc2SC1=O | > 100 |  | > 100 |  |  |  | > 100 | > 100 | > 100 | 
12 | CCSc1nc(=[N+]2CCCC2)ss1 | 30 | > 100 | > 100 | > 100 | 55.5 | > 100 |  | > 87 | > 100 | TGI [3]: 27.3 µM; TGI [4]: > 77.9 µM; TGI [6]: > 100 µM; TGI [9]: > 100 µM; TGI [17]: > 100 µM
13 | Clc1nc(NCCc2ccccc2)c2ncn(-c3ccccc3)c2n1 | 51 |  | > 100 |  |  |  | 98.2 | 31.4 | 62.8 | 
14 | Cc1ccc(Nc2nc(NS(=O)(=O)c3cc(C(=O)Nc4ccc(Cl)cc4)c(Cl)cc3S)n[nH]2)cc1 | > 100 |  | > 100 |  |  |  | > 100 |  | > 100 | 
15 | O=C1OCC/C1=C/c1ccc(N=Nc2c(O)ccc3ccccc23)cc1 | 51.1 |  | > 100 |  |  |  | > 100 | 36.6 | > 100 | 
16 | CN1CCN(c2cc(-c3cc4ccccc4o3)oc(=O)c2C#N)CC1 | > 100 | > 100 | > 100 | > 100 | > 100 | > 100 |  |  |  | TGI [4]: > 100 µM; TGI [9]: > 100 µM; TGI [17]: > 100 µM
17 | Cc1ccc2c(C)c3ccc4ccccc4c3c[n+]2c1 | 45.9 | > 100 | 40.8 | > 100 | 31 | 32.7 |  | 80.3 |  | TGI [3]: 17.3 µM; TGI [6]: 43.2 µM; TGI [9]: > 100 µM; TGI [17]: 30.4 µM
18 | CC1OC1C(=O)C1(O)C(C)C(O)C23OC2(C(O)c2c(O)cccc2C3=O)C1O (stereo not given) | 0.495 | 3.46 | 0.742 | 1.14 | 0.191 | 0.551 |  |  |  | TGI [3]: 0.526 µM; TGI [4]: 0.961 µM; TGI [5]: 0.889 µM; TGI [6]: 0.489 µM; TGI [7]: 0.345 µM; TGI [9]: 1.7 µM; TGI [11]: 0.425 µM
